This assay concerns Tn5 transposase enzyme bound to tagmented DNA (tagmented DNA complex), Mg^2+ cofactor. The assay is described as follows: Removal of Tn5 transposase from tagmented DNA complex after tagmentation with Mg2+ cofactor (library yield and insert size profile after PCR).

Each structure is given as a SMILES string. “Also recorded” adds a separate entry of the source.

Text: As such Mg^2+ was the divalent cation cofactor.
In the workflow for experiment A: DNA was first tagmented, appending the transferred strand of the adaptor to the 5′ ends of the tagmented DNA, and then treated with water (not sodium dodecyl sulfate (SDS)), thus keeping the Tn5 bound to the tagmented DNA. The tagmented DNA complex was washed and subjected to PCR (including high temperature heating which may dissociate the Tn5) to append adaptor sequences to the 3′ ends of the tagmented DNA.
In the workflow for experiment, B: DNA was first tagmented, appending the transferred strand of the adaptor to the 5′ ends of the tagmented DNA, and then was treated with SDS to denature the Tn5 enzyme, thus dissociating it from the tagmented DNA complex. The SDS was washed away and the tagmented DNA fragments were exposed to PCR to append adaptor sequences to the 3′ ends of the tagmented DNA.
Some of the supernatant was analyzed using a TapeStation. The size profile and yield of the tagmented DNA fragments from experiments A and B were measured using the TapeStation.
As such, Mg^2+ was the divalent cation cofactor.
In the workflow for experiment A: DNA was first tagmented, appending the transferred strand of the adaptor to the 5′ ends of the tagmented DNA. Tn5 was removed by adding 1% SDS and incubating for 5 minutes at 25° C.
In the workflow for experiment B: DNA was first tagmented, appending the transferred strand of the adaptor to the 5′ ends of the tagmented DNA. […] In experiment B, the transposase removal fluid included 100 mM Tris-HCl, pH 8.6, 100 mM NaCl, and 0.6 mM EDTA.
In the workflow for experiments A and B: DNA was first tagmented, appending the transferred strand of the adaptor to the 5′ ends of the tagmented DNA. Tn5 was removed by adding 1% SDS and incubating for 5 minutes at 25° C.
In the workflow for experiments C and D: DNA was first tagmented, appending the transferred strand of the adaptor to the 5′ ends of the tagmented DNA.
For each of these experiments, the tagmentation buffer included water, 4% DMF, 2 mM magnesium acetate, and 4 mM tris acetate salt, pH 7.6. As such Mg^2+ was the divalent cation cofactor.
In the workflow for experiment B: DNA was first tagmented, appending the transferred strand of the adaptor to the 5′ ends of the tagmented DNA. […] In experiment B, the transposase removal fluid included 140 mM Tris, pH 8.8, 100 mM KCl, and 1.8 mM EDTA. […] The sample was processed under Extension-Ligation and PCR-cycling conditions with a ligase, non-strand displacing polymerase and Q5 polymerase in a buffer base with 2.4 mM Magnesium.
In the workflow for experiment A: DNA was first tagmented using the Mg^2+ tagmentation buffer described in this example, appending the transferred strand of the adaptor to the 5′ ends of the tagmented DNA. Tn5 was removed by adding 1% SDS and incubating for 5 minutes at 25° C.
In the workflow for experiment D: DNA was first tagmented using the Mg^2+ tagmentation buffer described in this example, appending the transferred strand of the adaptor to the 5′ ends of the tagmented DNA.
In the workflow for experiment A: DNA was first tagmented, appending the transferred strand of the adaptor to the 5′ ends of the tagmented DNA. […] In experiment A, the transposase removal fluid included 500 mM Tris, pH 8.6, 100 mM NaCl, and 15 mM 2-hydroxy-4-oxo-4-thiophen-2-yl-but-2-enoic acid integrase inhibitor. […]

`O=C(O)CN(CCN(CC(=O)O)CC(=O)O)CC(=O)O` [EDTA, ethylenediaminetetraacetic acid]: under “Example 2, supernatant discarded, 100 mM Tris-HCl pH 8.6, 100 mM NaCl, 0.6 mM EDTA, 1 minute at 60° C., compared with 1% SDS”, the “Dissociation of Tn5 enzyme from tagmented DNA complex (yield and insert size profile, FIG. 5)” value was “sufficient to replace SDS as a reagent for dissociating the Tn5 enzyme from a tagmented DNA complex”. Further, the “Dissociation of Tn5 from tagmented DNA complex (size profile and yield, FIG. 6)” value (Example 3, applied directly without removing supernatant, 100 mM Tris-HCl pH 8.6, 100 mM NaCl, 6 mM EDTA, 1 minute at 60° C.) is listed as “can effectively dissociate Tn5 from the tagmented DNA complex”. For the same compound, where the note is “Example 4, 140 mM Tris pH 8.8, 100 mM KCl, 1.8 mM EDTA, 1 minute at 60° C., extension-ligation and PCR added directly with 2.4 mM magnesium”, the “Dissociation of Tn5 from tagmented DNA complex (size profile and yield, FIG. 7)” value is on record as “can dissociate Tn5 from the tagmented DNA complex”.
With `CCCCCCCCCCCCOS(=O)(=O)[O-].[Na+]` [SDS, sodium dodecyl sulfate], the “Tn5 removal from the tagmented product complex (yield and insert size profile, FIG. 4)” value (Example 1, SDS treatment versus water and high temperature heating of PCR, Mg2+ cofactor, sulfate) is listed as “more effective than heating alone; also recorded: more effective in removing Tn5 from the tagmented product complex than the high temperature heating used in PCR”.

The values are drawn from US20250197846A1, “TAGMENTATION WORKFLOW” (ILLUMINA, INC., priority 2022, published 2025).
